These results are taken from PMC6911004, “Fragment-based screening identifies molecules targeting the substrate-binding ankyrin repeat domains of tankyrase” (Scientific Reports, 2019).

Holding throughout (type): binding
One assay deals with T1, TNKS ARC1 (178–336) (Homo sapiens, UniProt O95271).
T1 construct: TNKS ARC1 (178–336); His6-GST; made in house; host or cells: E. coli
The assay is described as follows: WaterLOGSY NMR assay. How it is done:
(§1) Fragments were dispensed in duplicate into a 384-well plate (250 nL, 100 mM stock in DMSO). Wells were backfilled with DMSO (2.25 μL). Tankyrase ARC protein (47.5 μL in 25 mM HEPES-NaOH pH7.5, 100 mM NaCl, 2 mM TCEP, 10% D2O; 20 μM final protein concentration in the assay) was added to the samples containing protein; buffer only (47.5 μL) was added to the compound-only samples. Solutions were transferred to 1.7 mm NMR tubes using a Gilson liquid handling system. ^1H NMR spectra were recorded, with the DMSO signal dampened. The bulk water signal at 4.7 ppm was selectively inverted. Data were processed using Bruker Topspin 3.14[66].

The target of another assay is T2, TNKS ARC2–3 (331–645) (Homo sapiens, UniProt O95271).
T2 construct: TNKS ARC2–3 (331–645); His6-GST; made in house; host or cells: E. coli
In words: WaterLOGSY NMR assay. How it is done: as §1

The target in a further assay is T3, TNKS2 ARC2–3 (173–487) (Homo sapiens, UniProt Q9H2K2).
T3 construct: TNKS2 ARC2–3 (173–487); His6-GST; made in house; host or cells: E. coli
The assay is described as follows: WaterLOGSY NMR assay. How it is done:
as §1

The target in the next assay is T4, TNKS ARC4 (646–807) (Homo sapiens, UniProt O95271).
T4 construct: TNKS ARC4 (646–807); His6-GST; made in house; host or cells: E. coli
In words: WaterLOGSY NMR assay. Here is the method: as §1

The target in assay [1] is T5, TNKS2 ARC4 arginine cradle (WFE591/593/598AAA) (Homo sapiens, UniProt Q9H2K2, E598A/F593A/W591A).
T5 construct: The cell was filled with TNKS2 ARC4 (488–649); His6-GST; made in house; host or cells: E. coli
In words: WaterLOGSY NMR with mutant ARC.
Description: (§2) We used three previously designed TNKS2 ARC4 mutant variants[4] to explore potential binding determinants for fragment 9. A WFE591/593/598AAA triple-mutation abrogates three key residues in the “arginine cradle”; YY536/569AA truncates two tyrosine residues that form the “glycine sandwich”, and L560W introduces a bulky residue into the “central patch” that sterically clashes with the TBM peptide (see Fig. 5A,B for locations of the mutated residues). We tested binding of compound 9 to the wild-type and mutant ARCs by ligand-observed NMR, using the relaxation-edited assay (Fig. 5C, Table 4). […] Binding was impaired but not abolished for the “central patch” mutant variant (L560W).
as §1

Assay [2] deals with T6, TNKS2 ARC4 central patch (L560W) (Homo sapiens, UniProt Q9H2K2, L560W).
T6 construct: TNKS2 ARC4 (488–649); His6-GST; made in house; host or cells: E. coli BL21-CodonPlus (DE3)-RIL
The assay is described as follows: WaterLOGSY NMR with mutant ARC.
Description: as §2, §1

Assay [3] concerns the target T7, TNKS2 ARC4 aromatic glycine sandwich (YY536/569AA) (Homo sapiens, UniProt Q9H2K2, Y536A/Y569A).
T7 construct: TNKS2 ARC4 (488–649); His6-GST; made in house; host or cells: E. coli BL21-CodonPlus (DE3)-RIL
In words: WaterLOGSY NMR with mutant ARC.
Description: as §2, §1

T1 sequence (O95271 178-336): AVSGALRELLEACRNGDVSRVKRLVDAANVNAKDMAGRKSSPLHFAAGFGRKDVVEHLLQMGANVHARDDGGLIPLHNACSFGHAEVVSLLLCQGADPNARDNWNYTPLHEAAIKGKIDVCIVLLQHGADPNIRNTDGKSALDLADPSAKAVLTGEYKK
T4 sequence (O95271 646-807): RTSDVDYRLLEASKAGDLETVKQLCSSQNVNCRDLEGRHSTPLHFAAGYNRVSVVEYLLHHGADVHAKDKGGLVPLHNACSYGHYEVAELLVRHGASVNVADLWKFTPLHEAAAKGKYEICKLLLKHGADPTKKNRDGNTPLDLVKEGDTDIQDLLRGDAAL
T2 sequence (O95271 331-645): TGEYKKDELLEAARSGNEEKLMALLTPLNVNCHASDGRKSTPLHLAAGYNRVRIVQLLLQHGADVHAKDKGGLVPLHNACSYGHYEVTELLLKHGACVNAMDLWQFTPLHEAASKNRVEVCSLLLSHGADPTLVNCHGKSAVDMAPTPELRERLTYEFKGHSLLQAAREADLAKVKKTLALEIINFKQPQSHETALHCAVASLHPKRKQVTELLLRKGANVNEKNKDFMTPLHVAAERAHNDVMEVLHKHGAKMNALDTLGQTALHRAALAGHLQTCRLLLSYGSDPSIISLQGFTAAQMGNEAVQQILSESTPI

For `O=C(NCc1ccco1)c1ccc2nccnc2c1` [compound 9], the waterLOGSY result at TNKS ARC1 (178–336) is on record as “negative NOE signal”; on TNKS ARC2–3 (331–645) it was “negative NOE signal”; at TNKS2 ARC2–3 (173–487), “negative NOE signal”; at TNKS ARC4 (646–807), “negative NOE signal”; in assay [1], “negative NOE”; in assay [2] it was “positive NOE”. The waterLOGSY result in assay [3] is “positive NOE”.
